How the values were obtained:
Type in all cases: cell-based
[1] = target: T1, human PPARalpha receptor (Homo sapiens, UniProt Q07869); experiment: cellular GAL4 reporter gene assay (M1H) in HEK293 cells, PPARalpha; conditions: agonist mode
T1 construct: expressed in transfected cells; host or cells: HEK293 (DSMZ ACC 305)
T1 sequence (Q07869 239-466 limits assumed): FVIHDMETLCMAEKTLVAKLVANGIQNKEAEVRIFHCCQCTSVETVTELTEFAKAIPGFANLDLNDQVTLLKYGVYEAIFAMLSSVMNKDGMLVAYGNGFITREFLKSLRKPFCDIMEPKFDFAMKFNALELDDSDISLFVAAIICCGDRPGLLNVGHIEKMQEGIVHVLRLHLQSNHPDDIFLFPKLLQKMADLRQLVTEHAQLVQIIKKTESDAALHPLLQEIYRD
Experimental: The compounds BIZ-102 (Example 2), BIZ-103 (Example 5) and BIZ-106 were tested at the human PPARalpha receptor in a cellular GAL4 Reporter gene assay. The assay was run in agonist and antagonist mode to detect agonistic as well as antagonistic activities of the tested compounds.
Performance of the GAL4 cellular reporter assay:
Day 1: Cells were seeded in 96 well plates in plating medium (MEM with serum), incubation overnight at 37° C., 5% CO2.
Day 2: Removal of plating medium
Addition of PEI-based transfection agent
Incubation for 4-6 hours at 37° C., 5% CO2
Addition of assay medium (MEM with serum)
Addition of compounds (dilution series was generated in MEM with serum)
Incubation overnight at 37° C., 5% CO2
Day 3: Removal of assay medium (16-20 hours after compound addition)
Addition of Passive Lysis Buffer (Promega)
15 mins incubation at room temperature
Addition of luciferase buffers and measurement in a dual-flash procedure
(§1) The assays were done in HEK293 cells (DSMZ ACC 305). The plasmids used in the GAL4 assay system were derivatives of Stratagene's M2H plasmids: the reporter plasmid pFR-Luc (containing a synthetic promoter with five tandem repeats of the yeast GAL4 binding sites that control expression of the Photinus pyralis (American firefly) luciferase gene), and pCMV-BD (for fusions of nuclear receptor ligand binding domains to the DNA-binding domain of the yeast protein GAL4). In order to improve experimental accuracy, a second reporter—Renilla reniformis luciferase, driven by a constitutive promoter—was included as an internal control. Using the control reporter (Renilla Luciferase) allowed corrections for variations in experimental handling, e.g. transfection efficacy, cell viability, pipetting errors, cell lysis efficiency and assay efficiency.
Primary read out of the assays was loaded into PhAST (Phenex Assay and Screening Tool) and checked for assay quality (generation of SB and Zprime values). […] Within PhAST there are two measured and one calculated data layers:
LAYER1 (measured)—contains the activity values of the firefly luciferase activities and is a direct measure for modulation of the cofactor binding properties of the Nuclear Receptors by the tested compounds.
LAYER2 (measured)—contains the activity values of the renilla luciferase activities and is used as normalisation layer. As the renilla luciferase is expressed under control of the constitutively active CMV promoter, moderate well-to-well differences can be used to correct for variations in experimental handling.
LAYER3 (calculated)—is calculated according to the following equation: […]
1000*Firefly luciferase value/Renilla luciferase value
These normalised values are, as well as LAYER1, a measure for the modulation of the cofactor binding properties of the nuclear receptors by the tested compounds.

[2] = target: T2, human PPARbeta/delta (Homo sapiens, UniProt Q03181); experiment: cellular GAL4 reporter gene assay, agonist mode, PPARbeta/delta
T2 construct: expressed in transfected cells; host or cells: HEK293 (DSMZ ACC 305)
T2 sequence (Q03181 211-439 limits assumed): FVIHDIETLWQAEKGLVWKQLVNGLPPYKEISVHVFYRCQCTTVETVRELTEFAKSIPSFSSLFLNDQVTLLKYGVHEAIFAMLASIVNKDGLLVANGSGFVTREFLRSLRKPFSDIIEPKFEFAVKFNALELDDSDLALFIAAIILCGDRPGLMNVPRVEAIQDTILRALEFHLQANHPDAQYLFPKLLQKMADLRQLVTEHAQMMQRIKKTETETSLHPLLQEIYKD
From the text: as §1, with “M2H” left out, “reporter-Renilla” for “reporter—Renilla”, “promoter-was” for “promoter—was”, “efficiency. […] The compounds BIZ-102 and BIZ-103 were tested at the human PPARbeta/delta and PPARgamma receptors using the same cellular GAL4 Reporter gene assays as in Example 6. The assays were run in agonist mode to detect agonistic activities of the tested compounds.” for “efficiency.”

[3] = target: T3, human PPARgamma (Homo sapiens, UniProt P37231); experiment: cellular GAL4 reporter gene assay, agonist mode, PPARgamma
T3 construct: expressed in transfected cells; host or cells: HEK293 (DSMZ ACC 305)
T3 sequence (P37231 238-503 limits assumed): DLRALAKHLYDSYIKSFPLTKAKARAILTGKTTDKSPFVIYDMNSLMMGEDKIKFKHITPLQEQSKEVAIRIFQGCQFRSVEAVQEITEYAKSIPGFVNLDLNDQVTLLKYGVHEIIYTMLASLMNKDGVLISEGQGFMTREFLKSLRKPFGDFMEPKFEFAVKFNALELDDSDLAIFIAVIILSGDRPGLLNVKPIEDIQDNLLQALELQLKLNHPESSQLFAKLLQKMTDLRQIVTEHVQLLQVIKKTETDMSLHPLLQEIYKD
From the text: as §1, with “M2H” left out, “reporter-Renilla” for “reporter—Renilla”, “promoter-was” for “promoter—was”, “efficiency. […] The compounds BIZ-102 and BIZ-103 were tested at the human PPARbeta/delta and PPARgamma receptors using the same cellular GAL4 Reporter gene assays as in Example 6. The assays were run in agonist mode to detect agonistic activities of the tested compounds.” for “efficiency.”

Compound: CCCCC/C=C\C/C=C\C/C=C\C/C=C\CCC(CC)C(=O)O (stereo not shown) [BIZ-102, (All-Z) 2-ethyl-5,8,11,14-eicosatetraenoic Acid]
- Efficacy vs. Fenofibric Acid ([1]; HEK293): 45%
- Efficacy vs. GW7647 ([1]; HEK293): 150%
- EC50 ([1]; HEK293, GAL4 reporter): 0.35 µM
- EC50 [2]: 4.3 µM
- PPARbeta/delta efficacy vs. GW501516 [2]: 20%
- EC50 [3]: 1.5 µM
- PPARgamma efficacy vs. Rosiglitazone [3]: 23%
